One may read the Kd as the constant that tells how readily two partners part at equilibrium. Broadly, the Ki is a dissociation constant, usually derived from enzyme kinetics or from competition with a known ligand. In general, koff refers to the first-order rate constant of dissociation. A higher koff goes with fast dissociation. By kon is commonly meant a measure of how fast the partners come together. A low value points to slower complex formation. As a reminder, the Km is the substrate concentration at which the rate is half of its maximum. Broadly, the kcat is the maximal rate divided by the concentration of active sites. As usually defined, the kcat/Km is the turnover number divided by the Michaelis constant.

For data set [1], the target named is T1, D183N human arginase I (Homo sapiens, UniProt P05089, D183N).
T1 sequence (P05089 1-322 D183N): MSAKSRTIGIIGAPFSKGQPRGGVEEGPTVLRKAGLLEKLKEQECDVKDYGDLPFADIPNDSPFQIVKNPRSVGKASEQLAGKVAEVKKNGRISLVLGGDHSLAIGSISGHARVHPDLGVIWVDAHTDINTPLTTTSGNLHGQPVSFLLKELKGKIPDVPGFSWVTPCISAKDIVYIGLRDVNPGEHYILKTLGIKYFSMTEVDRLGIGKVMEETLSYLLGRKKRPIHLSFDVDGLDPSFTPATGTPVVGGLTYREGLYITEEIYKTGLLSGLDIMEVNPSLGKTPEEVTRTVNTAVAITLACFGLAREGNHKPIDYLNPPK
The data set is described as follows: Isothermal titration calorimetry, D183N human arginase I. The data set is classed as binding.

The target in data set [2] is T2, D183A human arginase I (Homo sapiens, UniProt P05089, D183A).
T2 sequence (P05089 1-322 D183A): T1 sequence (P05089 1-322 D183N) with N183A
Description: Isothermal titration calorimetry, D183A human arginase I. It counts as binding. Background: Isothermal titration calorimetry measures the heat released or taken up as one component is titrated into another.

The target in data set [3] is wild-type human arginase I. The following applies: isothermal titration calorimetry; ref [30] and [48]; cited from earlier work.
Another data set has as its target T3, T135S rat arginase I (Rattus norvegicus, UniProt P07824, T135S).
T3 sequence (P07824 1-323 T135S): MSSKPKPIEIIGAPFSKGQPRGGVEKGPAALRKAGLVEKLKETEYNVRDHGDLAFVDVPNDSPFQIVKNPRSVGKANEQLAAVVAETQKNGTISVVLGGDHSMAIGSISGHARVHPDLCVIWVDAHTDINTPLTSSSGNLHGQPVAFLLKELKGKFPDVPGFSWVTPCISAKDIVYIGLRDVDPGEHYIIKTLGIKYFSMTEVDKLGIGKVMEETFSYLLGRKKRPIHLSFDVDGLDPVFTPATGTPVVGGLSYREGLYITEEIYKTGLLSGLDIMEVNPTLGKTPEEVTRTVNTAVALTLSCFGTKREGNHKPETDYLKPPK
It counts as biochemical.

Another data set has as its target T4, wild-type rat arginase I (Rattus norvegicus, UniProt P07824).
T4 sequence (P07824 1-323): T3 sequence (P07824 1-323 T135S) with S135T
The following applies: ref [14], cited from earlier work.

A further data set deals with T5, T135A rat arginase I (Rattus norvegicus, UniProt P07824, T135A).
T5 sequence (P07824 1-323 T135A): T3 sequence (P07824 1-323 T135S) with S135A
Description: 14C-urea radioactive arginase assay, T135A rat arginase I. The data set is classed as biochemical.

The target in another data set is T6, N130A rat arginase I (Rattus norvegicus, UniProt P07824, N130A).
T6 sequence (P07824 1-323 N130A): T3 sequence (P07824 1-323 T135S) with N130A, S135T
The data set is described as follows: 14C-urea radioactive arginase assay, N130A rat arginase I. The data set is classed as biochemical.

Data set [4] concerns rat arginase I. Conditions: ref [26], cited from earlier work; for diminished catalytic activity based on kcat/KM relative to L-arginine / increased KM value relative to L-arginine: alternative substrate.
The test system of data set [5] is wild-type human arginase I. The following applies: substrate L-arginine; ref [30] and [48]; cited from earlier work.
Data set [6] addresses T1, D183N human arginase I. Description: 14C-urea radioactive arginase assay, D183N human arginase I. It counts as biochemical. The following applies: substrate L-arginine; pH 9.0, room temperature.
In data set [7] the target is T2, D183A human arginase I. Conditions: substrate L-arginine; pH 9.0, room temperature.
Data set [8] has as its system proclavaminic acid amidinohydrolase. Conditions: ref [54]; cited from earlier work.
Data set [9] concerns rat arginase I. The following applies: deletion of the carboxylate group of ABH; ref [28]; cited from earlier work.
Substrate in data set [10]: N=C(N)NCCC[C@H](N)C(=O)O
The data set is described as follows: 14C-urea radioactive arginase assay, D183A rat arginase I. It counts as biochemical. Conditions: other: substrate L-arginine, pH 9.0, room temperature.

Substrate in data set [11]: N=C(N)NCCC[C@H](N)C(=O)O
The data set is classed as biochemical, rat. Conditions: other: substrate L-arginine, pH 9.0, room temperature.

Substrate in data set [12]: N=C(N)NCCC[C@H](N)C(=O)O
Description: 14C-urea radioactive arginase assay, N130A rat arginase I. Conditions: other: substrate L-arginine, pH 9.0, room temperature. It counts as biochemical.

Substrate in data set [13]: N=C(N)NCCC[C@H](N)C(=O)O
Description: 14C-urea radioactive arginase assay, N130Y rat arginase I. The data set is classed as biochemical. Conditions: other: substrate L-arginine, pH 9.0, room temperature.

Substrate in data set [14]: N=C(N)NCCC[C@H](N)C(=O)O
Description: 14C-urea radioactive arginase assay, N130F rat arginase I. The following applies: other: substrate L-arginine, pH 9.0, room temperature. The data set is classed as biochemical.

Substrate in data set [15]: N=C(N)NCCC[C@H](N)C(=O)O
Description: 14C-urea radioactive arginase assay, T135A rat arginase I. The following applies: other: substrate L-arginine, pH 9.0, room temperature. The data set is classed as biochemical.

[16] abbreviates: progress curves in the presence of 30 µM BEC linear with time.

Substitutions are numbered along the chain they refer to. Numbers in names are those of the source. Where “and” joins values, the source holds several entries; their conditions need not be identical. Identical values can stand only once. Like-named read-outs stand apart in the source and are kept apart here.

In the case of `N[C@@H](CCCCB(O)O)C(=O)O` [ABH, 2(S)-amino-6-boronohexanoic acid], the Kd on D183N human arginase I [1] is 0.147 µM; on D183A human arginase I [2], 7 µM; in [3], 0.005 µM. The “inhibitor binding affinity weakened relative to wild-type” value on D183N human arginase I [1] (D183N vs wild-type human arginase I, calorimetric Kd) is 29 fold; on D183A human arginase I [2] (D183A vs wild-type human arginase I, calorimetric Kd), ~ 1400 fold and 1400 fold.
In the case of `N[C@@H](CSCCB(O)O)C(=O)O` [BEC, S-(2-boronoethyl)-L-cysteine], the Ki was 0.125 µM on T135S rat arginase I; 0.4 µM on wild-type rat arginase I (slow-binding kinetics observed, Ki = koff/kon); 4.5 µM at T135A rat arginase I; 13 µM on N130A rat arginase I. Moreover, the koff on T135S rat arginase I came out at 0.00155 s⁻¹. Further, at T135S rat arginase I, the association rate constant (kon) came to 12400 M⁻¹ s⁻¹. The inhibitor binding behaviour result on T135S rat arginase I (non-linear progress curves in the presence of BEC) is recorded as “slow-binding behavior”; on wild-type rat arginase I, “slow-binding inhibitor”; on T135A rat arginase I (setting [16]), “does not exhibit slow-binding behavior”; on N130A rat arginase I (setting [16]) it was “no longer a slow-binding inhibitor”. Moreover, the “diminished enzyme-inhibitor affinity relative to wild-type” value at N130A rat arginase I (N130A vs wild-type rat arginase I) is ~ 30 fold.
As for `NC(N)=NCCC[C@@H](N)C(=O)O` [D-arginine], the substrate activity result in the data set with rat arginase I [4] is on record as “not a substrate”.
On to `N=C(N)NCCC[C@H](N)C(=O)O` [L-arginine], for which the Km is 1.5 mM in data set [5] and 40 mM at D183N human arginase I [6]. For the same molecule, the turnover number (kcat) in data set [5] is 190 s⁻¹; on D183N human arginase I [6] it was 167 s⁻¹; on D183A human arginase I [7] it was 68 s⁻¹. Moreover, the substrate acceptance result in data set [8] was “does not accept L-arginine as a substrate”.
Take `NC(N)=NCCC[C@H](O)C(=O)O` [L-argininic acid]: in the data set with rat arginase I [4], the “diminished catalytic activity based on kcat/KM relative to L-arginine” value was 3,200 fold and the “increased KM value relative to L-arginine” value is on record as 9 fold.
For the molecule `NCCCCN=C(N)N` [agmatine], in the data set with rat arginase I [4], the “diminished catalytic activity based on kcat/KM relative to L-arginine” value is given as 54,000 fold and the “increased KM value relative to L-arginine” value is 11 fold.
With `NCCCCCB(O)O` [descarboxy-ABH], the “loss of inhibitory activity relative to ABH” value in the data set with rat arginase I [9] is 1800 fold.

B1: D183A rat arginase I (Rattus norvegicus; D183A) (protein)
chain: T3 sequence (P07824 1-323 T135S) with S135T, D183A
As for B1, in data set [10], the Km is recorded as 13.9 mM, the kcat is 14.7 s⁻¹ and the specificity constant (kcat/Km) worked out at 1100 M⁻¹ s⁻¹.

B2: T135S rat arginase I (Rattus norvegicus; T135S) (protein)
chain: T3 sequence (P07824 1-323 T135S)
In the case of B2, in data set [11], the Km is given as 2.5 mM, the catalytic constant (kcat) stood at 350 s⁻¹ and the kcat/Km was 140000 M⁻¹ s⁻¹.

B3: N130A rat arginase I (Rattus norvegicus; N130A) (protein)
chain: T3 sequence (P07824 1-323 T135S) with N130A, S135T
B3: in [12], the Km is on record as 50 mM, the kcat was 220 s⁻¹ and the kcat/Km came to 4400 M⁻¹ s⁻¹.

B4: N130Y rat arginase I (Rattus norvegicus; N130Y) (protein)
chain: T3 sequence (P07824 1-323 T135S) with N130Y, S135T
For B4, in [13], the Michaelis-Menten constant (Km) is recorded as 21.4 mM, the turnover number (kcat) was found to be 17 s⁻¹ and the kcat/Km turned out to be 790 M⁻¹ s⁻¹.

B5: N130F rat arginase I (Rattus norvegicus; N130F) (protein)
chain: T3 sequence (P07824 1-323 T135S) with N130F, S135T
On to B5, for which, in data set [14], the Km was 19.3 mM, the kcat is 4.8 s⁻¹ and the specificity constant (kcat/Km) stood at 250 M⁻¹ s⁻¹.

B6: T135A rat arginase I (Rattus norvegicus; T135A) (protein)
chain: T3 sequence (P07824 1-323 T135S) with S135A
As for B6, in [15], the Michaelis constant (Km) worked out at 13 mM, the catalytic constant (kcat) was determined as 260 s⁻¹ and the kcat/Km turned out to be 20000 M⁻¹ s⁻¹.

Values taken from PMC2665027 (Biochemistry, 2009).
